How the values were obtained:
PCSK9/LDLR = biological target: T1, PCSK9/LDLR (Homo sapiens, UniProt Q8NBP7); experiment: In vitro PCSK9-LDLR binding assay (CircuLex/CycLex kit); conditions: for IC50: mean ± SD, three independent experiments, Hill slope fixed at −1
T1 construct: purchased CircuLex (CycLex Co., Nagano, Japan)
Protocol: Diimidazole analogues (0.1–1 × 10^6 nM) were tested using the in vitro PCSK9-LDLR binding assay (CycLex Co., Nagano, Japan) following the manufacturer’s instructions and with the conditions already optimized.[15] Briefly, the plates were pre-coated with a recombinant LDLR-AB domain containing the binding site of PCSK9. Before starting the assay, the tested analogues and/or the vehicle in DMSO were sonicated at 37 °C, diluted in the reaction buffer, and added in microcentrifuge tubes. Afterward, the reaction mixtures were added in each well of the microplate, and the reaction was started by adding His-tagged PCSK9 solution (3 μL). The microplate was allowed to incubate for 2 h at room-temperature (RT) shaking at 300 rpm on an orbital microplate shaker. Subsequently, the wells were washed 4 times with the wash buffer. After the last wash, the biotinylated anti-His-tag monoclonal antibody (100 μL) was added and incubated at RT for 1 h shaking at 300 rpm. After incubation, the wells were washed 4 times with wash buffer. After the last wash, 100 μL of HRP-conjugated streptavidin were added, and the plate was incubated for 20 min at RT. After incubation, the wells were washed 4 times with wash buffer. Finally, the substrate reagent (tetra-methylbenzidine) was added, and the plate was incubated for 10 min at RT shaking at ca. 300 rpm. The reaction was stopped with 2.0 M sulfuric acid, and the absorbance at 450 nm was measured using a Synergy H1 fluorescent plate reader (Winooski, VT, USA).
All the data sets were checked for normal distribution by D’Agostino and Pearson tests. Since they are all normally disturbed with p values of […], we proceeded with statistical analyses of one-way ANOVA followed by Tukey’s post hoc test using Graphpad Prism 9 (San Diego, CA, USA). Values were reported as means ± s.d.; p values of <0.05 were considered to be significant. The IC50 values of samples inhibiting PCSK9-LDLR binding were evaluated by using the log(inhibitor) vs response model of GraphPad Prism 9 (San Diego, CA, USA). This model assumes that the dose–response curves has a standard slope, equal to a Hill slope (or slope factor) of −1.0. This is the slope expected when a ligand binds to a receptor following the law of mass action and is the slope expected of a dose–response curve when the second messenger created by receptor stimulation binds to its receptor by the law of mass action (https://graphpad.com/guides/prism/latest/curvefitting/reg_dr_inhibit.htm).

HepG2 cells = experiment: HepG2 cell viability (MTT assay); type: cell-based, human; conditions: 48 h treatment, 0.1 nM to 10 μM, versus control cells
Protocol: Figure 3 HepG2 cell viability after the Dim3 (A) and Dim16 (B) treatments. Bar graphs indicating the results of the cell viability assay of HepG2 cells after Dim3 and Dim16 (0.1–10,000 nM) treatment for 48 h. The data points represent the mean ± SD of the three experiments in triplicate. ns: not significant.
The HepG2 cell line was bought from ATCC (HB-8065, ATCC from LGC Standards, Milan, Italy) and cultured in DMEM high glucose with stable L-glutamine supplemented with 10% FBS, 100 U/mL penicillin, and 100 μg/mL streptomycin (complete growth medium) with incubation at 37 °C under a 5% CO2 atmosphere.

[1] = tested on: LDLR localized on HepG2 surfaces; experiment: In-cell Western assay of LDLR on the HepG2 cell surface in the presence of PCSK9; type: cell-based, human; conditions: for LDLR levels on HepG2 surface: co-incubated with PCSK9 4 μg/mL, relative to untreated control cells; for fold more active than Rim13: LDLR restoration and LDL uptake in HepG2 cells, versus Rim13 ref 25
Protocol: For the experiments, a total of 3 × 10^4 HepG2 cells/well were seeded in 96-well plates. The following day, the cells were washed with PBS and then starved overnight (O/N) in DMEM without FBS and antibiotics. After starvation, the HepG2 cells were treated with 4.0 μg/mL PCSK9-WT and 4.0 μg/mL PCSK9 + diimidazole analogues and vehicle (H2O) for 2 h at 37 °C under a 5% CO2 atmosphere. Subsequently, they were fixed in 4% paraformaldehyde for 20 min at room temperature (RT). Cells were washed 5 times with 100 μL of PBS/well (each wash was for 5 min at RT), and the endogenous peroxide activity was quenched by adding 3% H2O2 for 20 min at RT. Non-specific sites were blocked with 100 μL/well of 5% bovine serum albumin (BSA, Sigma) in PBS for 1.5 h at RT. LDLR primary antibody solution (1:3000 in 5% BSA in PBS, 25 μL/well) was incubated O/N at +4 °C. Subsequently, the primary antibody solution was discarded, and each sample was washed 5 times with 100 μL/well of PBS (each wash was for 5 min at RT). Goat anti-rabbit Ig-HRP secondary antibody solution (Santa Cruz) (1:6000 in 5% BSA in PBS, 50 μL/well) was added and incubated 1 h at RT. The secondary antibody solution was washed 5 times with 100 μL/well of PBS (each wash for 5 min at RT). Freshly prepared TMB substrate (Pierce, 100 μL/well) was added, and the plate was incubated at RT until the desired color was developed. The reaction was stopped with 2 M H2SO4, and then the absorbance at 450 nm was measured using a microplate reader (Synergy H1, Winooski, VT, USA). After the reading, the cells were stained by adding 1× Janus Green stain, incubating for 5 min at RT. The dye was removed, and the sample was washed 5 times with water. Afterward, 100 μL of 0.5 M HCl for well was added, and the solution was incubated for 10 min. After 10 s of shaking, the OD at 595 nm was measured using the microplate reader (Synergy H1, Winooski, VT, USA).

T1 sequence (Q8NBP7 153-692): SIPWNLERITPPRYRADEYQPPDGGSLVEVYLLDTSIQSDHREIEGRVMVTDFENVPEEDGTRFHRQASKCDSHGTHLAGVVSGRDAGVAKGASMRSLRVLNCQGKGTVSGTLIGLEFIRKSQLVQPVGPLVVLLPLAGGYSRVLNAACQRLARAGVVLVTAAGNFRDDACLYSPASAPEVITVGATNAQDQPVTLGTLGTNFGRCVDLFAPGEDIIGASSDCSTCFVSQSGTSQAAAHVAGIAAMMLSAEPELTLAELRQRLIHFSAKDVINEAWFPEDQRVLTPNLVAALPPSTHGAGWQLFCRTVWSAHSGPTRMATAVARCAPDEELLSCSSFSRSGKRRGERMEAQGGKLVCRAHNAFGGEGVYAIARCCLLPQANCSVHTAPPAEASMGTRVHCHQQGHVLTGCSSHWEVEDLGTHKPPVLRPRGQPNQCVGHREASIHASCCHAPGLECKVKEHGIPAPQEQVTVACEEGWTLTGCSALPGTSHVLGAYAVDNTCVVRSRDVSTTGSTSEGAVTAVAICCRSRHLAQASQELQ
T1 sequence (Q8NBP7 31-152 limits assumed): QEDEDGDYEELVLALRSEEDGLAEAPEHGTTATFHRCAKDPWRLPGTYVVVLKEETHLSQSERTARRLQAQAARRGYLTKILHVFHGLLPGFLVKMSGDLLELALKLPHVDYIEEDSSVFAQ

Row | SMILES | IC50 (PCSK9/LDLR) [nM] | HepG2 cell vitality (HepG2 cells) | LDLR levels on HepG2 surface ([1]; 1 nM) [%] | LDLR levels on HepG2 surface ([1]; 10 nM) [%] | fold more active than Rim13 [1] | PCSK9/LDLR PPI, fold more active than P5 (PCSK9/LDLR; ratio versus P5) | fold more effective than Dim3 in restoring LDLR protein level on cell surface ([1]; cellular level, Figure 4)
1 | C#Cc1ncc(-c2ncc(-c3ccc4ccccc4c3)n2CCCC(C)(C)C)n1CCCCCNC [Dim3, 5-(1-(4,4-Dimethylpentyl)-2′-ethynyl-5-(naphthalen-2-yl)-1H,3′H-[2,4′-biimidazol]-3′-yl)-N-methylpentan-1-amine] | 9 ± 10 | safe for HepG2 cells and safe | 77.87 ± 3.04 | 101.1 ± 15.06 | 100 | – | –
2 | CNCCCCCn1c(-c2ncc(-c3ccc4ccccc4c3)n2CCCC(C)(C)C)cnc1I [Dim16, 5-(1-(4,4-Dimethylpentyl)-2′-iodo-5-(naphthalen-2-yl)-1H,3′H-[2,4′-biimidazol]-3′-yl)-N-methylpentan-1-amine] | 0.8 ± 1 | safe for HepG2 cells and safe | 91.1 ± 2.22 | 87.17 ± 7.42 | 100 | 2000 | 10

Reference: publication PMC10291552, “Computational Design, Synthesis, and Biological Evaluation of Diimidazole Analogues Endowed with Dual PCSK9/HMG-CoAR-Inhibiting Activity” (Journal of Medicinal Chemistry, 2023)
